Values after ≈ are worked out from the molar mass of the structure shown. Read-outs that look alike come from different tables or passages of the source.
Experiments:
[1] = tested on: M. smegmatis; test: M. smegmatis cell growth inhibition; assay type: cell-based, Mycobacterium smegmatis
[2] = tested on: M. tuberculosis HN878; test: M. tuberculosis HN878 growth inhibition; assay type: cell-based, Mycobacterium tuberculosis
[3] = tested on: M. tuberculosis Erdman; test: M. tuberculosis Erdman growth inhibition; assay type: cell-based, Mycobacterium tuberculosis
[4] = tested on: M. tuberculosis H37Rv; test: M. tuberculosis H37Rv growth inhibition; assay type: cell-based, Mycobacterium tuberculosis
[5] = tested on: M. abscessus smooth variant; test: microbe, parasite or virus in culture; assay type: cell-based; conditions: for MIC: Mycobacteroides abscessus
[6] = tested on: M. abscessus rough variant; test: microbe, parasite or virus in culture; assay type: cell-based
[7] = tested on: Bacillus subtilis; test: B. subtilis growth inhibition; assay type: cell-based; conditions: Bacillus subtilis, read-out: Bs IC50
[8] = tested on: E. coli; test: E. coli growth inhibition; assay type: cell-based, Escherichia coli; conditions: read-out: Ec IC50
[9] = tested on: T. brucei bloodstream forms; test: T. brucei bloodstream form growth inhibition; assay type: cell-based, Trypanosoma brucei; conditions: read-out: T. brucei IC50
[10] = tested on: T. cruzi Dm28c epimastigotes; test: T. cruzi epimastigote growth inhibition; assay type: cell-based, Trypanosoma cruzi; conditions: read-out: T. cruzi IC50 (EPI)
[11] = tested on: T. cruzi Dm28c intracellular amastigotes; test: T. cruzi intracellular amastigote inhibition; assay type: cell-based, Trypanosoma cruzi; conditions: read-out: T. cruzi IC50 (PAR)
[12] = tested on: L. donovani promastigotes; test: L. donovani promastigote growth inhibition; assay type: cell-based, Leishmania donovani; conditions: read-out: L. donovani IC50
[13] = tested on: L. mexicana promastigotes; test: L. mexicana promastigote growth inhibition; assay type: cell-based, Leishmania mexicana
[14] = tested on: Plasmodium falciparum asexual blood stages; test: P. falciparum asexual blood stage; assay type: cell-based
[15] = target: M. tuberculosis MmpL3 (MtMmpL3) (Mycobacterium tuberculosis, UniProt P9WJV5); test: Surface plasmon resonance binding to MmpL3
[16] = DSC of DMPC bilayers with inhibitor; assay type: physicochemical; conditions: for Tm (main transition) / ΔH / ΔT1/2: 10 wt % inhibitor, PBS pH 7.4, heating; for Decrease of Tm compared to DMPC without inhibitor: heating
[17] = DSC of DSPG bilayers with inhibitor; assay type: physicochemical; conditions: for Tm (main transition) / ΔH / ΔT1/2: 10 wt % inhibitor, PBS pH 7.4, heating; for Broadening of main transition peak ΔΤ1/2 compared to pure DSPG / Decrease of Tm compared to DSPG alone: heating
[18] = tested on: M. abscessus strain PIPD1^R1 (A309P mutation in MmpL3)
[19] = in vitro; conditions: human
[20] = in vitro; conditions: human; remark: listed apart in the source
[21] = [14C-SQ109], mice; cited from earlier work
[22] = rat, in vivo; cited from earlier work
[23] = dog, in vivo; cited from earlier work
[24] = tested on: HepG2 (human hepatocellular carcinoma) cells; test: HepG2 cell line viability; conditions: 20 μM
[25] = Rat liver microsome stability; conditions: rat liver microsomes
[26] = Mice liver microsome stability; conditions: mice microsomes
[27] = Human liver microsome stability
[28] = tested on: U2OS host cells; test: U2OS host cell growth inhibition; conditions: read-out: T. cruzi CC50 (U20S)
[29] = tested on: M. abscessus strain PIPD1^R1 (A309P mutation in MmpL3); conditions: cited from earlier work
[30] = read-out: L. mexicana IC50, promastigotes
[31] = read-out: PfABS IC50 (μM ± S.E.), asexual blood stages

M. tuberculosis MmpL3 (MtMmpL3), sequence (P9WJV5 whole entry): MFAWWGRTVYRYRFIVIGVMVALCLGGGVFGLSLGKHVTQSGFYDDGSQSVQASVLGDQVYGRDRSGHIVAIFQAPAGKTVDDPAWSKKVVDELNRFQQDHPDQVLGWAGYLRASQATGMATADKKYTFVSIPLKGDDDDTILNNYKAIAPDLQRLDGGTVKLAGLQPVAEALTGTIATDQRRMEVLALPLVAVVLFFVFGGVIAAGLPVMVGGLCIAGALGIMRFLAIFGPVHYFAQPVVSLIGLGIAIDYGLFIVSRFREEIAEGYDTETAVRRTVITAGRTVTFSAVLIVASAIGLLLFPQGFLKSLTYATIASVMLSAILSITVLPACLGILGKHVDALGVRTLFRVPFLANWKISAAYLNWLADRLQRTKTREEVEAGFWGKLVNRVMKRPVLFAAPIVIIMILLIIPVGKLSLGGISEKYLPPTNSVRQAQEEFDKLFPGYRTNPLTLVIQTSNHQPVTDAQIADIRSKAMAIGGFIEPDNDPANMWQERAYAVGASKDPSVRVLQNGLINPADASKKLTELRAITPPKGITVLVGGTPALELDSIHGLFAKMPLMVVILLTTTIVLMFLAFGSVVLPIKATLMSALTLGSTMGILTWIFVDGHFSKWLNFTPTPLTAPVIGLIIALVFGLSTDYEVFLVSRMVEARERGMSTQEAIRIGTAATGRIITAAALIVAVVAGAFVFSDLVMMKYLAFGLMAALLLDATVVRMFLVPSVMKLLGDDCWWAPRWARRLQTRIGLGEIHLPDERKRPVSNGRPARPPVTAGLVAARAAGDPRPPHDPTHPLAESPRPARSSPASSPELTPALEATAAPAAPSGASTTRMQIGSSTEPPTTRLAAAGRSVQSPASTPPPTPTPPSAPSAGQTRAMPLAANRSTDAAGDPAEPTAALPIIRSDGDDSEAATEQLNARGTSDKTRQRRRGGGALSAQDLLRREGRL

CC(C)=CCC/C(C)=C/CNCCNC1C2CC3CC(C2)CC1C3 (stereo not drawn) [Compound 8a, N-geranyl-N΄-(2-adamantyl)ethane-1,2-diamine, reference compound]
IC50 ([1]; Mycolicibacterium smegmatis, read-out: Ms IC50, M. smegmatis): ~2.4 µM
MIC ([2]; Mycobacterium tuberculosis, HN878, read-out: MIC against M. tuberculosis): 0.3 to 1 µM (≈ 0.0992 to 0.331 µg/mL)
IC50 ([2]; Mycobacterium tuberculosis, HN878, read-out: Mtb HN878 IC50, dose-response curves): 270 ± 20 nM
MIC ([2]; Mycobacterium tuberculosis, HN878, read-out: Mtb HN878 MIC): 0.4 µM (≈ 0.132 µg/mL)
MIC ([3]; Mycobacterium tuberculosis, ERDMAN, read-out: Mtb Erdman MIC): 1.8 µM (≈ 0.595 µg/mL)
MIC ([4]; Mycobacterium tuberculosis, H37RV, read-out: Mtb H37Rv MIC): 1.8 µM (≈ 0.595 µg/mL)
MIC ([5]; read-out: MIC against M. abscessus): 22 to 44 µM (≈ 7.27 to 14.5 µg/mL)
MIC ([5]; read-out: Ma(S) MIC): 44 µM (≈ 14.5 µg/mL)
MIC ([6]; Mycobacteroides abscessus, read-out: Ma(R) MIC): 22 µM (≈ 7.27 µg/mL)
IC50 [7]: 16 µM
IC50 ([8]; Escherichia coli): 15 µM
IC50 ([9]; Trypanosoma brucei): 910 ± 30 nM
IC50 ([10]; Trypanosoma cruzi): 6.8 ± 2 µM
IC50 ([11]; Trypanosoma cruzi, U2OS): 740 ± 40 nM
IC50 ([12]; Leishmania donovani): 2000 ± 100 nM
IC50 ([13]; Leishmania mexicana, read-out: L. mexicana IC50, promastigotes): 500 nM
IC50 [13, 30]: 730 ± 200 nM
IC50 ([14]; Plasmodium falciparum, read-out: PfABS IC50 (μM ± S.E.), asexual blood stages): 1.6 µM
IC50 [14, 31]: 1.58 ± 0.2 µM
ka1 ([15]; two-state model): 429.8 M⁻¹ s⁻¹
ka2 ([15]; two-state model): 0.005315 s⁻¹
kd1 ([15]; two-state model): 1.098 s⁻¹
kd2 ([15]; two-state model): 0.02222 s⁻¹
Tm (main transition) [16]: 20.6 °C
ΔH [16]: 23.3 kJ/mol
ΔT1/2 [16]: 2.6 °C
Decrease of Tm compared to DMPC without inhibitor [16]: 3–4 °C
Tm (main transition) [17]: 50.4 °C
ΔH [17]: 54.0 kJ/mol
ΔT1/2 [17]: 2.1 °C
Broadening of main transition peak ΔΤ1/2 compared to pure DSPG [17]: 0.2–1.6 °C
Decrease of Tm compared to DSPG alone [17]: 3–4 °C
Resistance of A309P MmpL3 mutant [18]: not resistant
CC50 [19]: 4.1 ± 0.2 µM
viability at 20 µM [20]: 97%
half-life [21]: 5 h
half-life [22]: > 5 h
half-life [23]: > 5 h

CC(C)=CCCC(C)=CCNCCNC1(C)C2CC3CC(C2)CC1C3 (stereo not drawn) [Compound 8b, N-(3,7-dimethylocta-2,6-dien-1-yl)-N´-(2-methyl-2-adamantanyl)ethane-1,2-diamine]
IC50 ([1]; read-out: Ms IC50, M. smegmatis): 4.4 ± 0.5 µM
IC50 higher than SQ109, MtHN878 [2]: ~ 3 fold
Less activity than SQ109 against M. tuberculosis ([2]; MtbHN878, MtErdman and MtH37Rv): 2–4 fold
IC50 ([2]; read-out: Mtb HN878 IC50, dose-response curves): 860 ± 60 nM
Mtb HN878 MIC ([2]; visual inspection): 0.8 µM
Mtb Erdman MIC [3]: 3.5 µM
Mtb H37Rv MIC [4]: 3.5 µM
Ma(S) MIC [5]: 43 µM
Ma(R) MIC [6]: 22 µM
IC50 [8]: 25 µM
IC50 ([9]; bloodstream forms): 2100 ± 20 nM
IC50 ([10]; epimastigotes): 3.5 ± 1 µM
IC50 ([11]; intracellular amastigotes in U2OS host cells): 770 ± 200 nM
IC50 ([12]; promastigotes): 2000 ± 1000 nM
IC50 [13, 30]: 430 ± 80 nM
IC50 [14, 31]: 0.66 ± 0.18 µM
koff ([15]; 1:1 Langmuir binding model): 0.6882 s⁻¹
Kd ([15]; read-out: KD, 1:1 model, 1:1 binding model, from ratio of rate constants): 188 µM
Kd ([15]; read-out: KD, 2-state, two-state model, from rate constants): 248 µM
ka1 ([15]; two-state model): 4958 M⁻¹ s⁻¹
ka2 ([15]; two-state model): 0.01084 s⁻¹
kd1 ([15]; two-state model): 1.613 s⁻¹
kd2 ([15]; two-state model): 0.03486 s⁻¹
Tm (main transition) [16]: 17.9 °C
ΔH [16]: 25.6 kJ/mol
ΔT1/2 [16]: 2.2 °C
Decrease of Tm compared to DMPC without inhibitor [16]: ca. 5.6 °C
Tm (main transition) [17]: 50.5 °C
ΔH [17]: 53.2 kJ/mol
ΔT1/2 [17]: 2.0 °C
Broadening of main transition peak ΔΤ1/2 compared to pure DSPG [17]: 0.2–1.6 °C
Decrease of Tm compared to DSPG alone [17]: 3–4 °C
HepG2 % viability @ 20 μM [24]: 100%
Intrinsic clearance rate (CLint) relative to SQ109 [25]: about twice as large
Intrinsic clearance rate (CLint) relative to SQ109 [26]: essentially the same
Intrinsic clearance rate (CLint) relative to SQ109 ([27]; human liver microsomes): about twice as large
Stability relative to SQ109 (% remanent at 60 minutes) ([27]; human, mice and rat liver microsomes): 2–4 x
CC50 [28]: 2800 ± 700 nM

Cc1ccccc1CN1CCC(O)(c2ccc(Cl)c(C(F)(F)F)c2)CC1 [PIPD1]
Resistance (fold) ([29]; MmpL3 inhibitor resistance): 32–64 x
Resistance of strain PIPD1^R1 [29]: very high resistance
